# Data from ChEMBL document CHEMBL1201861, “Genomics of Drug Sensitity in Cancer screening data, Wellcome Trust Sanger Institute”.
# How the values were obtained:
# SW1417 = assay: cells; assay type: functional, cell-based; settings: Homo sapiens;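 also: growth inhibition of human SW1417 cells, read out with a cell viability assay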
# Description: SANGER: Inhibition of human SW1417 cell growth in a cell viability assay.
# KYSE-150 cell line = assay: cells; assay type: functional, cell-based; settings: Homo sapiens;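 also: growth inhibition of human KYSE-150 cells, read out with a cell viability assay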
# Description: SANGER: Inhibition of human KYSE-150 cell growth in a cell viability assay.
# EB-3 = assay: cells; assay type: functional, cell-based, Homo sapiens; settings: Homo sapiens, EB-3;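 also: human EB-3 cells, growth inhibition read out via a cell viability assay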
# Description: SANGER: Inhibition of human EB-3 cell growth in a cell viability assay.
# NCI-H661 = assay: cells; assay type: functional, cell-based; settings: Homo sapiens;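 also: cell viability assay read-out, IC50 being the concentration that inhibits growth of the cells by half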
# Description: SANGER: Inhibition of human NCI-H661 cell growth in a cell viability assay.
# NCI-H1651 = assay: cells; assay type: functional, cell-based; settings: Homo sapiens;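 also: Read-out is a cell viability assay, with IC50 expressing inhibition of NCI-H1651 cell growth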
# Description: SANGER: Inhibition of human NCI-H1651 cell growth in a cell viability assay.
# MKN-1 = assay: cells; assay type: functional, cell-based; settings: Homo sapiens;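 also: growth inhibition of human MKN1 cells, read out by a cell viability measurement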
# Description: SANGER: Inhibition of human MKN1 cell growth in a cell viability assay.
# NY = assay: cells; assay type: functional, cell-based; settings: Homo sapiens
# Description: SANGER: Inhibition of human NY cell growth in a cell viability assay.
# COLO-678 = assay: cells; assay type: functional, cell-based; settings: Homo sapiens
# Description: SANGER: Inhibition of human COLO-678 cell growth in a cell viability assay.
# WM-115 = assay: cells; assay type: functional, cell-based; settings: Homo sapiens
# Description: SANGER: Inhibition of human WM-115 cell growth in a cell viability assay.
# MeWo = assay: cells; assay type: functional, cell-based; settings: Homo sapiens;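 also: growth inhibition of MeWo cells, determined by a cell viability readout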
# Description: SANGER: Inhibition of human Mewo cell growth in a cell viability assay.
# COLO-680N = assay: cells; assay type: functional, cell-based; settings: Homo sapiens;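 also: cell viability assay used to measure inhibition of COLO-680N cell growth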
# Description: SANGER: Inhibition of human COLO-680N cell growth in a cell viability assay.
# MDA-MB-453 = assay: cells; assay type: functional, cell-based; settings: Homo sapiens
# Description: SANGER: Inhibition of human MDA-MB-453 cell growth in a cell viability assay.
# 8505C = assay: cells; assay type: functional, cell-based; settings: Homo sapiens
# Description: SANGER: Inhibition of human 8505C cell growth in a cell viability assay.
# AN3-CA = assay: cells; assay type: functional, cell-based; settings: Homo sapiens;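 also: growth inhibition of human AN3-CA cells measured by a cell viability assay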
# Description: SANGER: Inhibition of human AN3-CA cell growth in a cell viability assay.
# T98G = assay: cells; assay type: functional, cell-based; settings: Homo sapiens;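 also: growth inhibition of T98G cells, read out by a cell viability assay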
# Description: SANGER: Inhibition of human T98G cell growth in a cell viability assay.
# NCI-H1693 = assay: cells; assay type: functional, cell-based; settings: Homo sapiens;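 also: growth inhibition of the human cell line, read out with a cell viability assay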
# Description: SANGER: Inhibition of human NCI-H1693 cell growth in a cell viability assay.
# SW1710 = assay: cells; assay type: functional, cell-based; settings: Homo sapiens;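 also: growth inhibition of SW1710 cells, determined with a cell viability assay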
# Description: SANGER: Inhibition of human SW1710 cell growth in a cell viability assay.
# HT-29 = assay: cells; assay type: functional, cell-based; settings: Homo sapiens;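 also: growth inhibition of human HT-29 cells, read out by a cell viability assay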
# Description: SANGER: Inhibition of human HT-29 cell growth in a cell viability assay.
# DOK = assay: cells; assay type: functional, cell-based; settings: Homo sapiens;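 also: cell viability assay read-out, values reflect inhibition of cell growth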
# Description: SANGER: Inhibition of human DOK cell growth in a cell viability assay.
# NCCIT = assay: SANGER: Inhibition of human NCCIT cell growth in a cell viability assay.; assay type: functional, cell-based; settings: Homo sapiens, NCCIT
# HSC-2 = assay: cells; assay type: functional, cell-based; settings: Homo sapiens;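 also: growth inhibition of human HSC-2 cells, read out by a cell viability assay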
# Description: SANGER: Inhibition of human HSC-2 cell growth in a cell viability assay.
# NCI-H64 = assay: cells; assay type: functional, cell-based, Homo sapiens; settings: Homo sapiens, NCI-H64;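 also: growth inhibition of NCI-H64 cells, read out with a cell viability assay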
# Description: SANGER: Inhibition of human NCI-H64 cell growth in a cell viability assay.
# RCM-1 = assay: cells; assay type: functional, cell-based; settings: Homo sapiens;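 also: growth inhibition of the RCM-1 line, determined with a cell viability readout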
# Description: SANGER: Inhibition of human RCM-1 cell growth in a cell viability assay.
# NCI-H522 = assay: cells; assay type: functional, cell-based; settings: Homo sapiens;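 also: cell viability assay measuring growth inhibition of human NCI-H522 cells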
# Description: SANGER: Inhibition of human NCI-H522 cell growth in a cell viability assay.
# NCI-H719 = assay: cells; assay type: functional, cell-based, Homo sapiens; settings: Homo sapiens, NCI-H719;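 also: growth inhibition of the cultured cell line, read out with a viability assay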
# Description: SANGER: Inhibition of human NCI-H719 cell growth in a cell viability assay.
# IGR-1 = assay: cells; assay type: functional, cell-based; settings: Homo sapiens;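 also: growth inhibition of human IGR-1 cells, read out with a cell viability assay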
# Description: SANGER: Inhibition of human IGR-1 cell growth in a cell viability assay.
# OPM-2 = assay: cells; assay type: functional, cell-based, Homo sapiens; settings: Homo sapiens, OPM-2;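 also: growth of OPM-2 cells measured with a viability assay, IC50 for suppression of proliferation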
# Description: SANGER: Inhibition of human OPM-2 cell growth in a cell viability assay.
# Ca9-22 = assay: cells; assay type: functional, cell-based; settings: Homo sapiens;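 also: growth inhibition of Ca9-22 cells, read out with a cell viability assay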
# Description: SANGER: Inhibition of human Ca9-22 cell growth in a cell viability assay.
# NCI-H1703 = assay: cells; assay type: functional, cell-based; settings: Homo sapiens;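 also: growth inhibition of NCI-H1703 cells, read out via a cell viability assay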
# Description: SANGER: Inhibition of human NCI-H1703 cell growth in a cell viability assay.
# G-401 = assay: cells; assay type: functional, cell-based; settings: Homo sapiens
# Description: SANGER: Inhibition of human G-401 cell growth in a cell viability assay.
# SW1990 = assay: cells; assay type: functional, cell-based; settings: Homo sapiens
# Description: SANGER: Inhibition of human SW1990 cell growth in a cell viability assay.
# CA46 = assay: cells; assay type: functional, cell-based, Homo sapiens; settings: Homo sapiens, CA46;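 also: growth inhibition of human CA46 cells, read out by a cell viability assay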
# Description: SANGER: Inhibition of human CA46 cell growth in a cell viability assay.
# COLO-679 = assay: cells; assay type: functional, cell-based; settings: Homo sapiens
# Description: SANGER: Inhibition of human COLO-679 cell growth in a cell viability assay.
# SK-MM-2 = assay: cells; assay type: functional, cell-based, Homo sapiens; settings: Homo sapiens, SK-MM-2;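 also: growth inhibition of human SK-MM-2 cells, read out with a cell viability assay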
# Description: SANGER: Inhibition of human SK-MM-2 cell growth in a cell viability assay.
# NCI-H1993 = assay: cells; assay type: functional, cell-based; settings: Homo sapiens;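 also: growth inhibition of the cancer cell line, assessed with a cell viability assay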
# Description: SANGER: Inhibition of human NCI-H1993 cell growth in a cell viability assay.
# AGS = assay: cells; assay type: functional, cell-based; settings: Homo sapiens;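 also: growth inhibition of AGS cells, determined with a cell viability assay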
# Description: SANGER: Inhibition of human AGS cell growth in a cell viability assay.
# MFH-ino = assay: cells; assay type: functional, cell-based, Homo sapiens; settings: Homo sapiens, MFH-ino;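 also: growth inhibition of human MFH-ino cells, read out by a cell viability assay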
# Description: SANGER: Inhibition of human MFH-ino cell growth in a cell viability assay.
# REH = assay: cells; assay type: functional, cell-based, Homo sapiens; settings: Homo sapiens, REH;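 also: growth inhibition of REH cells determined with a cell viability read-out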
# Description: SANGER: Inhibition of human REH cell growth in a cell viability assay.
# HMV-2 cell line = assay: cells; assay type: functional, cell-based; settings: Homo sapiens;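 also: growth inhibition of HMV-II cells, read out with a cell viability assay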
# Description: SANGER: Inhibition of human HMV-II cell growth in a cell viability assay.
# CHP-126 = assay: cells; assay type: functional, cell-based, Homo sapiens; settings: Homo sapiens, CHP-126
# Description: SANGER: Inhibition of human CHP-126 cell growth in a cell viability assay.
# COLO-792 = assay: cells; assay type: functional, cell-based; settings: Homo sapiens
# Description: SANGER: Inhibition of human COLO-792 cell growth in a cell viability assay.
# A-427 = assay: cells; assay type: functional, cell-based; settings: Homo sapiens;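 also: growth inhibition of human A-427 cells, read out by a cell viability assay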
# Description: SANGER: Inhibition of human A427 cell growth in a cell viability assay.
# U-118-MG = assay: cells; assay type: functional, cell-based; settings: Homo sapiens
# Description: SANGER: Inhibition of human U-118-MG cell growth in a cell viability assay.
# HCC1937 = assay: cells; assay type: functional, cell-based; settings: Homo sapiens;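 also: growth inhibition measured with a cell viability read-out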
# Description: SANGER: Inhibition of human HCC1937 cell growth in a cell viability assay.
# HSC-3 = assay: cells; assay type: functional, cell-based; settings: Homo sapiens
# Description: SANGER: Inhibition of human HSC-3 cell growth in a cell viability assay.
# NCI-H2171 = assay: cells; assay type: functional, cell-based, Homo sapiens; settings: Homo sapiens, NCI-H2171;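 also: growth inhibition of human NCI-H2171 cells, read out by a cell viability assay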
# Description: SANGER: Inhibition of human NCI-H2171 cell growth in a cell viability assay.
# SW-620 = assay: cells; assay type: functional, cell-based; settings: Homo sapiens;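 also: growth inhibition of human SW-620 cells, measured by a cell viability assay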
# Description: SANGER: Inhibition of human SW620 cell growth in a cell viability assay.
# L-540 = assay: cells; assay type: functional, cell-based, Homo sapiens; settings: Homo sapiens, L-540;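 also: growth inhibition of the human L-540 cell line, read out with a viability assay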
# Description: SANGER: Inhibition of human L-540 cell growth in a cell viability assay.
# WSU-NHL = assay: cells; assay type: functional, cell-based, Homo sapiens; settings: Homo sapiens, WSU-NHL;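 also: growth inhibition of human WSU-NHL cells, read out with a cell viability assay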
# Description: SANGER: Inhibition of human WSU-NHL cell growth in a cell viability assay.
# NCI-H460 = assay: cells; assay type: functional, cell-based; settings: Homo sapiens;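 also: cell viability assay scoring growth inhibition of human NCI-H460 cells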
# Description: SANGER: Inhibition of human NCI-H460 cell growth in a cell viability assay.
# NCI-H1963 = assay: cells; assay type: functional, cell-based, Homo sapiens; settings: Homo sapiens, NCI-H1963;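 also: cell growth inhibition of the human line, determined with a cell viability assay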
# Description: SANGER: Inhibition of human NCI-H1963 cell growth in a cell viability assay.
# NCI-H520 = assay: cells; assay type: functional, cell-based; settings: Homo sapiens;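 also: growth inhibition of NCI-H520 cells, measured by a cell viability assay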
# Description: SANGER: Inhibition of human NCI-H520 cell growth in a cell viability assay.
# SK-N-AS = assay: cells; assay type: functional, cell-based; settings: Homo sapiens;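 also: growth inhibition of human SK-N-AS cells, measured with a cell viability assay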
# Description: SANGER: Inhibition of human SK-N-AS cell growth in a cell viability assay.
# DoTc2-4510 = assay: cells; assay type: functional, cell-based; settings: Homo sapiens
# NCI-H2087 = assay: cells; assay type: functional, cell-based; settings: Homo sapiens;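 also: growth inhibition determined with a cell viability readout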
# Description: SANGER: Inhibition of human NCI-H2087 cell growth in a cell viability assay.
# HCC1395 = assay: cells; assay type: functional, cell-based; settings: Homo sapiens;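 also: growth inhibition of HCC1395 cells, read out by a cell viability assay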
# Description: SANGER: Inhibition of human HCC1395 cell growth in a cell viability assay.
# 647-V = assay: cells; assay type: functional, cell-based; settings: Homo sapiens;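 also: growth inhibition of 647-V cells, read out with a cell viability assay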
# Description: SANGER: Inhibition of human 647-V cell growth in a cell viability assay.
# JIYOYE = assay: cells; assay type: functional, cell-based, Homo sapiens; settings: Homo sapiens, JIYOYE
# Description: SANGER: Inhibition of human JiyoyeP-2003 cell growth in a cell viability assay.
# JEG-3 = assay: cells; assay type: functional, cell-based; settings: Homo sapiens;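 also: growth inhibition of human JEG-3 cells, read out with a cell viability assay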
# Description: SANGER: Inhibition of human JEG-3 cell growth in a cell viability assay.
# SK-MEL3 = assay: cells; assay type: functional, cell-based, SK-MEL-3; settings: Homo sapiens;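 also: growth inhibition of human SK-MEL-3 cells, read out with a cell viability assay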
# Description: SANGER: Inhibition of human SK-MEL-3 cell growth in a cell viability assay.
compound,measurement,setting,value
C/C(=C\c1csc(C)n1)[C@@H]1C[C@@H]2O[C@]2(C)CCC[C@H](C)[C@H](O)[C@@H](C)C(=O)C(C)(C)[C@@H](O)CC(=O)O1 [PATUPILONE],IC50,SW1417,> 32 nM
same,IC50,KYSE-150 cell line,0.499 nM
same,IC50,EB-3,> 32 nM
same,IC50,NCI-H661,30.1 nM
same,IC50,NCI-H1651,3.71 nM
same,IC50,MKN-1,2.65 nM
same,IC50,NY,1.56 nM
same,IC50,COLO-678,> 32 nM
same,IC50,WM-115,> 32 nM
same,IC50,MeWo,> 32 nM
same,IC50,COLO-680N,7.16 nM
same,IC50,MDA-MB-453,> 32 nM
same,IC50,8505C,0.451 nM
same,IC50,AN3-CA,0.452 nM
same,IC50,T98G,20 nM
same,IC50,NCI-H1693,> 32 nM
same,IC50,SW1710,< 0.125 nM
same,IC50,HT-29,0.499 nM
same,IC50,DOK,> 32 nM
same,IC50,NCCIT,1.73 nM
same,IC50,HSC-2,0.363 nM
same,IC50,NCI-H64,8.25 nM
same,IC50,RCM-1,15.2 nM
same,IC50,NCI-H522,0.635 nM
same,IC50,NCI-H719,> 32 nM
same,IC50,IGR-1,0.863 nM
same,IC50,OPM-2,> 32 nM
same,IC50,Ca9-22,1.13 nM
same,IC50,NCI-H1703,7.76 nM
same,IC50,G-401,1.51 nM
same,IC50,SW1990,> 32 nM
same,IC50,CA46,9.61 nM
same,IC50,COLO-679,0.394 nM
same,IC50,SK-MM-2,17.3 nM
same,IC50,NCI-H1993,> 32 nM
same,IC50,AGS,2.58 nM
same,IC50,MFH-ino,0.885 nM
same,IC50,REH,1.76 nM
same,IC50,HMV-2 cell line,0.394 nM
same,IC50,CHP-126,> 32 nM
same,IC50,COLO-792,> 32 nM
same,IC50,A-427,0.828 nM
same,IC50,U-118-MG,18 nM
same,IC50,HCC1937,> 32 nM
same,IC50,HSC-3,0.786 nM
same,IC50,NCI-H2171,9.62 nM
same,IC50,SW-620,0.648 nM
same,IC50,L-540,10.7 nM
same,IC50,WSU-NHL,4.15 nM
same,IC50,NCI-H460,0.333 nM
same,IC50,NCI-H1963,12 nM
same,IC50,NCI-H520,2.95 nM
same,IC50,SK-N-AS,> 32 nM
same,IC50,DoTc2-4510,0.846 nM
same,IC50,NCI-H2087,3.11 nM
same,IC50,HCC1395,> 32 nM
same,IC50,647-V,2.42 nM
same,IC50,JIYOYE,7.81 nM
same,IC50,JEG-3,5.01 nM
same,IC50,SK-MEL3,20.9 nM
